Here are results for 33 molecules from ChEMBL document CHEMBL1201862, “PubChem BioAssay data set” (2004).

Active and inactive are the calls of the source.

A short description of test [1]: Luminescence Cell-Based Dose Response HTS to Identify Activators of Luciferase Translation or Activity in H4 […] Cells. [Related pubchem assays: 1829 (Project Summary), 1814 (Primary HTS)]. Format: functional.
A short description of test [2]: Luminescence Cell-Based Dose Confirmation HTS to Identify Activators of 5'UTR Stem-Loop Driven Alpha-Synuclein mRNA Translation in H4 Neuroglioblastoma Cells. [Related pubchem assays: 1829 (Project Summary), 1814 (Primary HTS)]. Type of test: functional.
For test [3], the target named is T1, RNA-binding protein pos-1 (Caenorhabditis elegans, UniProt G5EF15).
T1 sequence (G5EF15 whole entry): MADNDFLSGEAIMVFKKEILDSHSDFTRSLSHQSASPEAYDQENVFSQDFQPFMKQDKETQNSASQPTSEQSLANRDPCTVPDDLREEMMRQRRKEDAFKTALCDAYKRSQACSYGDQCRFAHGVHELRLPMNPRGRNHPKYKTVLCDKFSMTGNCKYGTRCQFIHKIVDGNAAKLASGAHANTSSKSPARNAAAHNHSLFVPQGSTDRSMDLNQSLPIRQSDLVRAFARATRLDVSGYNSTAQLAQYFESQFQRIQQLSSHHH
As to the kind of experiment: inhibitors of POS-1/mex-3 RNA binding, dose response, biochemical, fluorescence polarization (AID 1964).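 Further: purified POS-1 fused to maltose binding protein made in E. coli; potency of compounds blocking POS-1 binding to fluorescent RNA.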 Background: In fluorescence polarisation assays a small probe gives low polarisation when free and higher when bound to something large.

Test [4] deals with T2, Zinc finger protein mex-5 (Caenorhabditis elegans, UniProt Q9XUB2).
T2 sequence (Q9XUB2 whole entry): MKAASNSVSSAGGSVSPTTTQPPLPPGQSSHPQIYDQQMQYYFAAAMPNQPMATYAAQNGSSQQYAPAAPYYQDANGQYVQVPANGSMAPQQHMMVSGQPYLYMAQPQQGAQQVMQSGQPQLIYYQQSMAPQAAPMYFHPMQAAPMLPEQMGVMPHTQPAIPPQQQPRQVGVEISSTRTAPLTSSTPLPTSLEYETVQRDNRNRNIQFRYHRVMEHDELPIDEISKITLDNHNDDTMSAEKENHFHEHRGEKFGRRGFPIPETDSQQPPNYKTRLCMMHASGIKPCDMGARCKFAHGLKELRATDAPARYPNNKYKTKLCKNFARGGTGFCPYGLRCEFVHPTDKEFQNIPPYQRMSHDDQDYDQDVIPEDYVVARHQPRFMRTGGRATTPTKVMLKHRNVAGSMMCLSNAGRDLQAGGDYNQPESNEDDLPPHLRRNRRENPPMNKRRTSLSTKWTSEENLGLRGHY
As to the kind of experiment: MEX-5/TCR-2 RNA interaction inhibitors, dose response, biochemical, C. elegans, fluorescence polarization (AID 1960).

In the next test the target is T3, Protein skinhead-1 (Caenorhabditis elegans, UniProt P34707).
T3 sequence (P34707 whole entry): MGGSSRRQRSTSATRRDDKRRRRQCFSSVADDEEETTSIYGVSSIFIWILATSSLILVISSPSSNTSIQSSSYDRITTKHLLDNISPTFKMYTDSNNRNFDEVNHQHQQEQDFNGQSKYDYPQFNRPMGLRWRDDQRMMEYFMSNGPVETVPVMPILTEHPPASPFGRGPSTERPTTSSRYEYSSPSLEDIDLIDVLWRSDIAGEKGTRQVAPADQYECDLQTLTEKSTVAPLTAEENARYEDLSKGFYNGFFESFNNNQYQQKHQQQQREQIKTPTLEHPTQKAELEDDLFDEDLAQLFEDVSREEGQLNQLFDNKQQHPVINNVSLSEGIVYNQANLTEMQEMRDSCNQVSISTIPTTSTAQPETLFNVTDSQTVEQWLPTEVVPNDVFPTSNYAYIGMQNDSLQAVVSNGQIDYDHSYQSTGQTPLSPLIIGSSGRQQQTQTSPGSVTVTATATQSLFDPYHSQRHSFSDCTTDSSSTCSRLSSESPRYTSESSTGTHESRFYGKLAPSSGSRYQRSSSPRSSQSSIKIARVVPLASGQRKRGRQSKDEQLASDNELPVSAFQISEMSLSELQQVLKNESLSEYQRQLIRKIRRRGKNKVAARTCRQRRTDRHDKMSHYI
Type of test: functional.

The next test concerns the target Cytochrome P450 2C9 (Homo sapiens, UniProt P11712).
Another test has as its target Cytochrome P450 2C19 (Homo sapiens, UniProt P33261). Briefly: Cytochrome panel assay with activity outcomes. Panel member name: p450-cyp2c19 Compounds with AC50 equal or less than 10 uM are considered active. As to conditions: read-out: AC50. Format: functional.
Test [5] concerns the target T4, Rac GTPase-activating protein 1 (Homo sapiens, UniProt Q9H0H5).
T4 sequence (Q9H0H5 whole entry): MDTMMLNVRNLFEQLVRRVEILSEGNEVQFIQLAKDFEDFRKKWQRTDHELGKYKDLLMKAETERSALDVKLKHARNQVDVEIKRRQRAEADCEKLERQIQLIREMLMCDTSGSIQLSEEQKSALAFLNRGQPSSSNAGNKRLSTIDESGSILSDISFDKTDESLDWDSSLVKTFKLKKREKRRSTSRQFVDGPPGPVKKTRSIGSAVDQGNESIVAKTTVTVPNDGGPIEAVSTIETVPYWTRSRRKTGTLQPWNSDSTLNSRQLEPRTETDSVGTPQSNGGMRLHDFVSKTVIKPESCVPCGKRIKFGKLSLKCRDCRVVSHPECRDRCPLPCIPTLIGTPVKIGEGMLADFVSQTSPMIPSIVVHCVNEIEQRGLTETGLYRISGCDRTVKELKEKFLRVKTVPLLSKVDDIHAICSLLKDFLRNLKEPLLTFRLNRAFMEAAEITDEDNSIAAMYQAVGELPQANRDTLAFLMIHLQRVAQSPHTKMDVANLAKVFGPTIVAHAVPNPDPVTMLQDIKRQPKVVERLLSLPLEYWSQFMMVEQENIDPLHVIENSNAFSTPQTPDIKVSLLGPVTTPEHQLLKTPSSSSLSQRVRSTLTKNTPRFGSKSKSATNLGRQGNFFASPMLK
As to the kind of experiment: MgcRacGAP GTPase-activating activity inhibitors, confirmation, biochemical, ADP Hunter fluorescence, primary and confirmatory (AID 624330). Format: functional.

The test system of a further test is INS1. As to the kind of experiment: beta cell apoptosis inhibitors, cytokine rescue, dose response, luminescence, retest (AID 449756).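 Further: cell death triggered by IL-1 beta plus TNF-alpha plus IFN-gamma mixture; protective hits raise ATP signal compared with cytokine alone wells.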 Type of test: functional, cell-based. As to conditions: Rattus norvegicus.
For another test, the target named is T5, Cytochrome P450 1A2 (Homo sapiens, UniProt P05177).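 Further: PubChem cytochrome P450 panel assay, CYP1A2 panel member.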
T5 sequence (P05177 whole entry): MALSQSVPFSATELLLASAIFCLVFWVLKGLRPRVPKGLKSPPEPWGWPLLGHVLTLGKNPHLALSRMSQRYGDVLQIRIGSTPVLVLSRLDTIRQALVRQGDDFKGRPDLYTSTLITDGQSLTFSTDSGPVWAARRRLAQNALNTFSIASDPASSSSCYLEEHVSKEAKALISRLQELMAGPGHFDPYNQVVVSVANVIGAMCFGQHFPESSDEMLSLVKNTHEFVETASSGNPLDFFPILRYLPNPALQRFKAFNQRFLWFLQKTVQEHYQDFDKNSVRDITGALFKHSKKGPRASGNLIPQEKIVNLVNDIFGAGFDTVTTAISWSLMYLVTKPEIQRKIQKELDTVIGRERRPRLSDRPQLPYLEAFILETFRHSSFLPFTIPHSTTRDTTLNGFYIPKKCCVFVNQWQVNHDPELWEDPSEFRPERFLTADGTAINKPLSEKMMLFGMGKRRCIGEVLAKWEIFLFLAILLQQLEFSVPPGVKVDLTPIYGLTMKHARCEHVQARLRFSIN

A short description of test [6]: P. falciparum Dd2 growth inhibitors, dose response, SYBR Green, cherry-picked samples (AID 1159567). Type of test: functional, cell-based.

Sequence of Cytochrome P450 2C19 (P33261 whole entry): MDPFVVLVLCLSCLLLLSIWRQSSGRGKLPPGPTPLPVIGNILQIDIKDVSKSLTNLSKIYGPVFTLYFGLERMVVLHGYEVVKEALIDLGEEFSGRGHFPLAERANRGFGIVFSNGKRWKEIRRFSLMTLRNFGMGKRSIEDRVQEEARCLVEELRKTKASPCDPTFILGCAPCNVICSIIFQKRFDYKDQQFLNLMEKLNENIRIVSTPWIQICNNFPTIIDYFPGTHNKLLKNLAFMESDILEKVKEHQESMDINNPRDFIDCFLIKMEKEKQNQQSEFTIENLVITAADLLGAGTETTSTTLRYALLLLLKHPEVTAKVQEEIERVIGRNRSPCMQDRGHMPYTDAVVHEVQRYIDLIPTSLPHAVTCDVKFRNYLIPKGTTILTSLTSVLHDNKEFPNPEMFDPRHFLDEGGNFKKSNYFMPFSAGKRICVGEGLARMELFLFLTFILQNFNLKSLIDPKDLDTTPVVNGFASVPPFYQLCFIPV
Sequence of Cytochrome P450 2C9 (P11712 whole entry): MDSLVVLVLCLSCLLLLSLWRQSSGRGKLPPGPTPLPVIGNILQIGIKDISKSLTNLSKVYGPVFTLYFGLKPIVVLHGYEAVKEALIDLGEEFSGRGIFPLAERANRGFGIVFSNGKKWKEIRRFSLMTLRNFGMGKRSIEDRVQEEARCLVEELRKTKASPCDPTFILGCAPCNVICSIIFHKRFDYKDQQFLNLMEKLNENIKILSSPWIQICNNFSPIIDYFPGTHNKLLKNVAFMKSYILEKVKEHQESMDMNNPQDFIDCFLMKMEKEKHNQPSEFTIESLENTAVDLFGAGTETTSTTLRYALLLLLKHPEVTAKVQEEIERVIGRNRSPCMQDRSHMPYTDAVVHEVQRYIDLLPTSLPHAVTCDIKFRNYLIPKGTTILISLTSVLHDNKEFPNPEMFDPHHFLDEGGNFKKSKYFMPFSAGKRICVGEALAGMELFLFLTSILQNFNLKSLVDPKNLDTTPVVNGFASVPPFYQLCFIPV

In the case of `Cc1ccccc1/C=C1\CCCc2ccccc2C1=O`, the EC50 (in general, the midpoint of the concentration-response curve) is 0.328 µM (active) in [1] and 0.172 µM (active) in test [2]. As for `COc1ccccc1-c1cnn2c(NCc3ccccc3)cc(C)nc12`, the concentration giving a half-maximal response (EC50) in test [3] and in [4] was > 300 µM (not active) throughout. `CC1(OC(=O)c2cccs2)C(=O)C=C2C=C(c3ccc(C#N)cc3)OC=C2C1=O` (stereo not drawn): the figures for the EC50 in test [3] and in test [4] were 93.2 µM (active) and 31.3 µM (active), respectively. For `Cc1ccc(-c2ccccc2)n1-c1ccc(C(=O)O)cc1`, in that order: > 300 µM (not active) and > 300 µM (not active).

With `CCCCn1nnnc1NCc1ccc(C)s1`, the IC50 (in general, the concentration that gives 50% inhibition) at Protein skinhead-1 was > 100 µM (inactive).

Take `CCC(=O)c1ccc(OCC(O)CN2CCN(S(=O)(=O)N3CCCCC3)CC2)cc1` (stereo not drawn): at Protein skinhead-1, the IC50 is > 100 µM (inactive). On the same count and under the same terms, in the case of `c1ccc(-c2noc(-c3cccc4ccccc34)n2)cc1` it was 18.8 µM (active). With `COc1cc(C2C3CN(C)CC=C3C(C#N)=C(N)C2(C#N)C#N)ccc1OC(C)C` (stereo not drawn), the EC50 was > 300 µM (inconclusive) in [3] and 31.3 µM (active) in test [4].

In the case of `COc1cc(CC(=O)OC2CCOC2=O)cc(OC)c1OC` (stereo not drawn), the AC50 (commonly the concentration at which the activity in the assay is half-maximal) on Cytochrome P450 2C9 is 39.8 µM (inconclusive); at Cytochrome P450 2C19 it was 8.91 µM (inconclusive). Consider `O=C(CSc1nnc(CN2CCOCC2)n1-c1ccc(Cl)cc1)N1CCc2ccccc21`, for which, at Protein skinhead-1, the IC50 was > 100 µM (inactive).

For `CCN(CC)c1nc(C)nc2c1cnn2CCc1ccccc1`, the EC50 in test [1] is 92.1 µM (active); in test [2], 85.2 µM (active).

As for `Cc1oc(-c2ccccc2)cc1C(=O)Nc1ccc(N(C)C)cc1`, the concentration at half-maximal activity (AC50) at Cytochrome P450 2C9 is 25.1 µM (inconclusive). For the same molecule, the IC50 in test [5] is 62.3 µM (active). Regarding `CCNC(=O)CC1C(=O)N(c2ccc(F)cc2)C(=O)N1CCc1ccc(OC)cc1` (stereo not drawn), the AC50 was 0.282 µM (inconclusive) on Cytochrome P450 2C9 and 8.91 µM (inconclusive) on Cytochrome P450 2C19. Turning to `COc1ccc([C@H]2CC(=O)C=C(c3ccnc4ccc(Cl)cc34)C2)cc1`, in the test with INS1, the AC50 is 2.64 µM (active). As for `Clc1ccc(OCCCCCN2CCOCC2)cc1`, the IC50 on Protein skinhead-1 is 53.9 µM (inactive).

Turning to `O=C(CN1C(=O)NC2(CCCCCC2)C1=O)c1ccc2c(c1)OCCO2`, the EC50 in test [1] is 0.676 µM (active); in test [2], 4.64 µM (active). As to `COc1nnc(-c2ccc(N3CCCCC3)c(NC(=O)C3CCCCC3)c2)c2ccccc12`, the half-maximal activity concentration (AC50) with INS1 is 6.09 µM (active).

On to `CCCn1nc2cc(C(=O)NCc3ccc(OC(F)(F)F)cc3)ccc2c1OCC`, for which, on Protein skinhead-1, the IC50 is 16.4 µM (active). On the same count and under the same terms, in the case of `O=C(c1cccnc1)C1Cc2ccccc2C1=O` (stereo not drawn) it was > 100 µM (inactive).

For `C=CCOc1ccc(C2OC34CCCCC3C(C#N)(C#N)C2(C#N)C(=N)O4)cc1` (stereo not drawn), the EC50 was 12.5 µM (active) in [3] and 9.41 µM (active) in [4]. On to `COC(=O)c1ccc(Nc2cc(C)nc3ncnn23)cc1`, for which the IC50 on Protein skinhead-1 was > 100 µM (inactive).

Consider `CC(C)c1cccc(C(C)C)c1OC(=O)[C@H]1OC(C(C)(C)C)=C[C@@H]1c1ccccc1`, for which the AC50 in the test on INS1 is 7.46 µM (active). The same measure, in the same setting: in the case of `O=C(C1=C[C@@H](c2ccc(C(F)(F)F)cc2)C[C@@H](OCCCCO)O1)N1CCN(Cc2ccccc2)CC1` it was 5.94 µM (active). For `O=C(O)CCCCCNC(=O)c1ccncc1`, the results for the AC50 on Cytochrome P450 2C9, on Cytochrome P450 1A2 and on Cytochrome P450 2C19 were 25.1 µM (inconclusive), 0.01 µM (inconclusive) and 39.8 µM (inconclusive), respectively. Regarding `O=C(Nc1cc(-c2ccccc2)nn1C1CCCCC1)c1ccc(Cl)cc1`, the half-maximal activity concentration (AC50) with INS1 is 5.2 µM (active). With `Cc1ccc(NC(=O)CSCc2cc(=O)n3ccsc3n2)cc1`, the IC50 on Protein skinhead-1 is > 100 µM (inactive). For the molecule `CC(=O)n1c(/C=N/c2ccccc2)c(O)c2ccccc21`, the EC50 in test [3] and in test [4] was > 300 µM (not active) in each case. Take `CCN(CC(=O)Nc1ccccc1C(F)(F)F)C(=O)c1ccc(NC(=O)c2cccs2)cc1`: the IC50 on Protein skinhead-1 was > 100 µM (inactive).

Regarding `O=C(N/N=C\c1cc([N+](=O)[O-])ccc1N1CCCC1)c1ccccn1`, the EC50 is 149 µM (inconclusive) in test [3] and 70.5 µM (inconclusive) in test [4]. In the case of `CCCNC(=O)N1[C@H](C#N)[C@@H](c2ccccc2C2=CCCC2)[C@@H]1CO`, in [6], the AC50 is 7.07 µM (active). `COc1ccccc1-c1ccc([C@@H]2[C@@H](CO)N3CCCCN(C(=O)c4ccncc4)C[C@@H]23)cc1`: the AC50 in [6] is 14.1 µM (active). Still for that read-out and setting: in the case of `O=C(C[C@@H]1C[C@H]2c3cc(NS(=O)(=O)c4ccc(F)cc4)ccc3O[C@H]2[C@H](CO)O1)N1CCc2ccccc2C1` it was 9.73 µM (active). Same read-out and setting: as for `COCC(=O)Nc1ccc2c(c1)C(=O)N(C)C[C@H](OC)[C@H](C)CN(Cc1cc(F)ccc1F)[C@H](C)CO2`, the figure is 3.74 µM (active).
